The target in the assay is T1, Human Leukocyte Elastase (HLE) (Homo sapiens, UniProt P08246).
T1 sequence (P08246 30-267): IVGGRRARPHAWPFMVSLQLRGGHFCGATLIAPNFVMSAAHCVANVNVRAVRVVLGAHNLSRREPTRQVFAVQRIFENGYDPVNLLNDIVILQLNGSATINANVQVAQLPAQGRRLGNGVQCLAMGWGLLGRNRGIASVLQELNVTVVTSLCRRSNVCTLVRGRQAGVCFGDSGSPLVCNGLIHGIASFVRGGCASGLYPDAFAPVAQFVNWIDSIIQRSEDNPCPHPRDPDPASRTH
As to the kind of experiment: Inhibition of Human Leukocyte Elastase (HLE); hydrolysis of Methoxy-succinyl-Alanyl-Alanyl-Prolyl-Valyl-nitroanilide. It counts as biochemical. To be noted: for inhibition at 20 µM: 2.0 × 10^-5 Molar; for inhibition at 10 µM: 1.0 × 10^-5 Molar; for inhibition at 0.2 µM: 2.0 × 10^-7 Molar; for inhibition at 0.05 µM: 5.0 × 10^-8 Molar; for inhibition at 1 µM: 1.0 × 10^-6 Molar; for inhibition at 5 µM: 5.0 × 10^-6 Molar. Here is the method:
Inhibition of Human Leukocyte Elastase (HLE)
This test measures the rate of hydrolysis of Methoxy-succinyl-Alanyl-Alanyl-Prolyl-Valyl-nitroanilide by HLE in the presence and absence of the compound to be tested. The procedure used is as follows. The following stock solutions are prepared.
1. a saline solution of HLE prepared from a composition containing 10% HLE with the remainder being sodium acetate (300 micrograms per ml) wherein the concentration was adjusted to give a change in absorption of 0.12 od units per minute in the assay in the absence derivative,
2. a dimethylsulfoxide solution of the nitroanilide peptide (2m mole),
3. tris-HCl buffer (0.2M,pH 8.0) and
4. a dimethylsulfoxide solution of the derivative to be tested at 20 times the desired final concentration.
The test hydrolysis solution was then prepared by adding 850 microliters buffer, 50 microliters derivative solution, 50 microliters peptide solution to a 1 cm. semi-micro cuvette. The cuvette was capped, slightly shaken and placed in the light chamber of a recording colorimeter where the increase in absorption at 410 nm. due to liberated nitroaniline was measured. Using this procedure, the one minute change in absorption of the test sample containing derivative was compared to the change in absorption in the absence of derivative. A 20% or more decrease in the rate of absorption was interpreted as a positive inhibition.

SMILES strings stand for the structures.

As usually defined, the inhibition is the percentage by which the read-out fell short of the control. `CCCCCCCCCCCCCCCCCCOCc1cc(=O)c(OCc2ccccc2)co1` [Example 11, 2-[(octadecyloxy)methyl]-5-(phenylmethoxy)-4Hpyran-4-one] came in with an inhibition at 20 µM of 24%.

Consider `CCCCCCCCCCCCCCOCc1cc(=O)c(O)co1` [Example 12, 5-hydroxy-2-[(tetradecyloxy)methyl]-4Hpyran-4-one], for which the inhibition at 10 µM came to 34% and at 20 µM the inhibition was 48%.

In turn, `CCCCCCCCCCCCCCCCOCc1cc(=O)c(O)co1` [Example 13, 5-hydroxy-2-[(hexadecyloxy)methyl]-4Hpyran-4-one] displayed an inhibition at 20 µM of 23%.

The compound `CCCCCCCCCCCCCCCCCCOCc1cc(=O)c(O)co1` [Example 14, 5-hydroxy-2-[(octadecyloxy)methyl]-4Hpyran-4-one] displayed an inhibition at 10 µM of 46% and an inhibition at 20 µM of 50%.

Compound `CCCCCCCCCCCCCCOCc1cc(=O)c(OC(=O)C(C)(C)C)co1` [Example 15, 4-oxo-2-[(tetradecyloxy)methyl]-4H pyran-5-yl-2,2-dimethylpropanoate] had an inhibition at 10 µM of 81%, an inhibition at 20 µM of 88%, an inhibition at 0.2 µM of 60% and an inhibition at 0.05 µM of 38%.

`CCCCCCCCCCCCCCCCOCc1cc(=O)c(OC(=O)C(C)(C)C)co1` [Example 16, 2-[(hexadecyloxy)methyl]-4-oxo-4H pyran-5-yl-2,2-dimethylpropanoate] gave an inhibition at 10 µM of 87%, an inhibition at 1 µM of 69%, an inhibition at 20 µM of 89% and an inhibition at 0.2 µM of 52%. This compound also gave an inhibition at 0.05 µM of 27%.

For the compound `CCCCCCCCCCCCCCCCOCc1cc(=O)c(OC(=O)C(C)C)co1` [Example 17, 2-[(hexadecyloxy)methyl]-4-oxo-4H pyran-5-yl-2-methylpropanoate], the inhibition at 1 µM was 88%, the inhibition at 0.2 µM is 81% and at 0.05 µM the inhibition was 61%.

Turning to `CCCCCCCCCCCCCCCCOCc1cc(=O)c(OC(=O)C(C)C(C)C)co1` (centres unmarked) [Example 18, 2-[(hexadecyloxy)methyl]-4-oxo-4H pyran-5-yl-2,3-dimethylbutanoate], the inhibition at 10 µM came out at 48% and the inhibition at 20 µM came out at 59%.

With `CCCCCCCCCCCCCCCCOCc1cc(=O)c(OC(=O)CC(C)C)co1` [Example 19, 2-[(hexadecyloxy)methyl]-4-oxo-4H pyran-5-yl-3-methylbutansate], the inhibition at 10 µM stood at 52% and the inhibition at 20 µM was determined as 67%.

In the case of `CCCCCCCCCCCCCCCCCCOCc1cc(=O)c(OC(=O)C(C)(C)C)co1` [Example 20, 2-[(octadecyloxy)methyl] -4-oxo-4Hpyran-5-yl-2,2-dimethylpropanoate], the inhibition at 10 µM is 73%, the inhibition at 20 µM was found to be 66% and at 5 µM the inhibition was 69%.

On to `CCCCCCCCCCCCCCCCOc1coc(COC2CCCCO2)cc1=O` (centres unmarked) [Example 21, 5-Hexadecyloxy-2-tetrahydropyrany/oxymethyl-4H pyran-4-one], for which the inhibition at 20 µM worked out at 23%.

In the case of `CCCCCCCCCCCCCCCCOc1coc(COC(=O)C(C)(C)C)cc1=O` [Example 23, 5-Hexadecyloxy-4-oxo-4Hpyran-2-hydroxymethyl-2,2-dimethylpropanoate], the inhibition at 10 µM was determined as 62%, the inhibition at 20 µM was 65% and at 5 µM the inhibition was 36%.

As for `CCCCCCCCCCCCCCCCOc1coc(C(=O)O)cc1=O` [Example 24, 5-Hexadecyloxy-2-carboxyl-4Hpyran-4-one], at 10 µM the inhibition was 83%, 20 µM produced 86% inhibition and the inhibition at 5 µM amounted to 84%.

The values are drawn from patent US4603144A, “Kojic acid ether-ester derivatives” (G. D. Searle & Co., priority 1984, dated 1986).
